For orientation: IC50 means the concentration that gives 50% inhibition. Read a high IC50 as lower potency. The inhibition in vivo is the percentage by which the read-out fell short of the control.

This note sets out measurements from patent publication US10519140B2, “Indolin-2-one derivatives” (Hoffmann-La Roche Inc., priority 2015, dated 2019).

In one experiment the target is T1, mouse ENT-1 transporter (Mus musculus, UniProt Q9JIM1).
T1 construct: expressed in transfected cells
T1 sequence (Q9JIM1 1-460): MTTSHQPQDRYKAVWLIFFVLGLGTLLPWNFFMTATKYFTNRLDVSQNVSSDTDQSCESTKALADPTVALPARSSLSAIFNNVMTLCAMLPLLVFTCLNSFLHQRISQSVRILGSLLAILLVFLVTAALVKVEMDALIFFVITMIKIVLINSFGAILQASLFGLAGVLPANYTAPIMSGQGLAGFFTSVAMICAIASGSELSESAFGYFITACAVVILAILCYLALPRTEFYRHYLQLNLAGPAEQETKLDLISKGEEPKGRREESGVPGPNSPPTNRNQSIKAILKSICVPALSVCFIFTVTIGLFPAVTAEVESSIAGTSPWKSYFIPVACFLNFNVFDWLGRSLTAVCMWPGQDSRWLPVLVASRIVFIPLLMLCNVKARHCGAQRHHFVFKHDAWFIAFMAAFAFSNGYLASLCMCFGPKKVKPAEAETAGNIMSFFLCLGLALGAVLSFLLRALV
As to the kind of experiment: Adenosine transport activity (ENT1, [3H]-adenosine uptake inhibition). Type of experiment: cell-based. The settings on record: stable cells expressing mouse ENT-1; [2,8-3H]-adenosine 6 nM, 20 min. As to the method: To measure adenosine transport activity of ENT-1 mammalian cells, stable cells expressing the mouse ENT-1 transporter were plated on day 1 in 96-well culture plates at the density of 60,000 cells/well, in complete DMEM/F12 medium supplemented with glutamax, 10% FBS and 10 μg/ml puromycin. On day 2, the medium was aspirated and the cells were washed twice with uptake buffer (10 mM Hepes-Tris, pH 7.4 containing 150 mM NaCl, 1 mM CaCl2, 2.5 mM KCl, 2.5 mM MgSO4, 10 mM D-glucose) (UB). For inhibition experiments, cells were then incubated at RT with various concentrations of compounds with 1% DMSO final. Non-specific uptake was defined in the presence of 10 μM S-(4-Nitrobenzyl)-6-thioinosine (NBTI, Sigma Cat #N2255). A solution containing [2,8-^3H]-adenosine 6 nM (40 Ci/mmol, American Radiolabeled chemicals Inc, Cat #ART 0287A) was then immediately added to the wells. The plates were then incubated for 20 min with gentle shaking and the reaction was stopped by aspiration of the mixture and washing (three times) with ice-cold UB. The cells were lysed by the addition of scintillation liquid, shaken 3 hours and the radioactivity in the cells was estimated using a microplates scintillation counter (TopCount NXT, Packard).

Experiment [1] deals with L-687,414-induced hyperlocomotion. As to the kind of experiment: L-687,414-induced hyperlocomotion. Type of experiment: in vivo. The settings on record: Mus musculus; mice; dose 30 mg/kg ip, 15 min before 50 mg/kg s.c. L-687,414. From the text:
The authors described that hyperlocomotion induced by L-687,414 was inhibited by a series of known antipsychotic drugs. […] These findings predict antipsychotic activity for the present compounds, making them useful for the treatment of positive (psychosis) and negative symptoms of schizophrenia, substance abuse, alcohol and drug addiction, obsessive-compulsive disorders, cognitive impairment, bipolar disorders, mood disorders, major depression, resistant depression, anxiety disorders, Alzheimer's disease, autism, Parkinson's disease, chronic pain, borderline personality disorder, sleep disturbances, chronic fatigue syndrome, stiffness, antiinflammatory effects in arthritis and balance problems, and treatment of epilepsy and neurodevelopmental disorders with co-morbid epilepsy.
The described compounds of formula I reduce L-687,414-induced hyperlocomotion. This was assessed by using a computerized Digiscan 16 Animal Activity Monitoring System (Omnitech Electronics, Columbus, Ohio) to quantify locomotor activity. Animals were kept under a 12 h light/dark cycle and experiments were performed during the light period. Each activity monitoring chamber consisted of a Plexiglas box (41×41×28 cm; W×L×H) with sawdust bedding on the floor surrounded by invisible horizontal and vertical infrared sensor beams. The test boxes were divided by a Plexiglas cross providing each mouse with 20×20 cm of moving space. Cages were connected to a Digiscan Analyzer linked to a computer that constantly collected the beam status information. Records of photocell beam interruptions for individual animals were taken every 5 min over the duration of the experimental session and the sum of the first 6 periods was used as the final parameter. At least 8 mice were used in each treatment group. Compounds were administered i.p. 15 min before a s.c. injection of 50 mg/kg of L-687,414. Mice were then transferred from their home cage to the recording chambers for a 15-min habituation phase allowing free exploration of the new environment. Horizontal activity was then recorded for a 30-min time period. The % inhibition of L-687,414-induced hyperlocomotion was calculated according to the equation: ((Veh+L-687,414 horizontal activity−drug+L-687,414 horizontal activity)/Veh+L−687,414 horizontal activity)×100
ID50 values, defined as doses of each compound producing 50% inhibition of L-687,414-induced hyperlocomotion, were calculated by linear regression analysis of a dose-response data using an Excel-based computer-fitting program.
As data was not presupposed to be normally distributed, groups treated with test compounds were statistically compared with the control (vehicle-treated) group using one-tailed Mann Whitney U tests. In statistics, the Mann-Whitney Utest (also called the Mann-Whitney-Wilcoxon (MWW) or Wilcoxon rank-sum test) is a non-parametric statistical hypothesis test for assessing whether one of two samples of independent observations tends to have larger values than the other. It is one of the most well-known non-parametric significance tests. […] P values given in table 1 are one-tailed since only decreases in locomotion were expected and tested for (Mann, H. B., Whitney, D. R. (1947), “On a Test of Whether one of Two Random Variables is Stochastically Larger than the Other”, Annals of Mathematical Statistics, 18 (1), 50-60).

As to `Cc1ncc(-c2ccc3c(c2)N(c2ccc4c(c2)N(C)C(=O)CO4)C(=O)C3(C)C)cn1` [Example 47, 6-(3,3-Dimethyl-6-(2-methylpyrimidin-5-yl)-2-oxoindolin-1-yl)-4-methyl-2H-benzo[b][1,4]oxazin-3(4H)-one], at mouse ENT-1 transporter, the IC50 was determined as 14.2 nM. In experiment [1], at 30 mg/kg the inhibition in vivo was 93.8%.
